The source of these data is patent US7524886B2, “L-(−)-moprolol L-(+)-tartrate” (Aziende Chimiche Riunite Angelini Francesco A.C.R.A.F. …, priority 2004, dated 2009).

The subject of the data set is rabbit eye (conjunctiva, iris, cornea). Kind of data set: Ocular tolerability (Draize) in rabbits. It counts as in vivo, rabbits (New Zealand White). How it is done: Two aqueous solutions were used.
The first contained 1% by weight of L-(−)-moprolol hydrochloride (corresponding to 0.87% by weight of L-(−)-moprolol). The second contained 1.14% by weight of L-(−)-moprolol L-(+)-tartrate (2:1) (corresponding to 0.87% by weight of L-(−)-moprolol).
12 male rabbits (New Zealand White) with an average weight of 2 kg and an average age of ten months were used, divided into two groups of six rabbits each. The first group was treated with 0.1 ml of the first test solution three times a day for fifteen days. The second group was treated with 0.1 ml of the second test solution three times a day for fifteen days.
The tolerability was evaluated according to J. Draize et al., Pharmacol. Exp. Ther., 83, 377-390 (1944).

Where [1] appears, read: Draize score, male rabbits, 0.1 ml aqueous solution (0.87% by weight L-(−)-moprolol) three times a day for fifteen days.

As for `COc1ccccc1OC[C@@H](O)CNC(C)C.Cl` [L-(−)-moprolol hydrochloride, reference compound], under “rabbit, in vivo”, the “Conjunctiva Lachrymation” value is 2, the “Conjunctiva Reddening” value amounted to 1, the “Conjunctiva Swelling” value is recorded as 2 and the “Cornea Area of the cornea affected by opacity” value turned out to be 0. Also, under “rabbit, in vivo”, the “Cornea Opacity” value stood at 0, the Iris is reported as 0 and the “Total Score” value was 5.

As for `COc1ccccc1OC[C@@H](O)CNC(C)C.COc1ccccc1OC[C@@H](O)CNC(C)C.O=C(O)C(O)C(O)C(=O)O` [L-(−)-moprolol L-(+)-tartrate, L-(−)-moprolol L-(+)-tartrate (2:1)], under setting [1], the “Conjunctiva Lachrymation” value turned out to be 1, the “Conjunctiva Reddening” value turned out to be 0, the “Conjunctiva Swelling” value is recorded as 0 and the “Cornea Area of the cornea affected by opacity” value came out at 0. Also, under setting [1], the “Cornea Opacity” value stood at 0 and the Iris amounted to 0. For the same compound, the local tolerability result (rabbit, in vivo) is recorded as “better local tolerability”. Under “sum of Draize scores, male rabbits, 0.1 ml aqueous solution (0.87% by weight L-(−)-moprolol) three times a day for fifteen days”, the “Total Score” value is recorded as 1.
